Laboratory results published in PMC8308678, “Treatment with Micafungin in a Preterm Neonate with an Invasive Candida parapsilosis Infection after a Severe Terlipressin-Induced Skin Necrosis” (Pathogens, 2021).
Values after ≈ are worked out from the molar mass of the structure shown. Read-outs that look alike come from different tables or passages of the source. Starred links: 1 amine or outer side, 2 acyl side, 3 side chain; linkers in the order of their positions; H or OH if unused. Positions of bridges follow the written chain, without caps; N, C: chain ends. Non-standard residues stand in square brackets, D forms with d. Residues, ends and D or L forms follow the SMILES beside them. *: point of attachment. hTyr(3S-OH,4S-OH,3'-OSO3H) = N[C@H](C(=O)O)[C@H](O)[C@@H](O)c1ccc(O)c(OS(=O)(=O)O)c1; pTerphenylCO(4''-OnC5H11) = CCCCCOc1ccc(-c2ccc(-c3ccc(C(=O)*)cc3)cc2)cc1; Orn(4R-OH,5R-OH) = O=C([C@H](C[C@@H](O)[C@@H](O)N[*:3])N[*:1])[*:2]; hTyr(3S-OH,4S-OH) = N[C@H](C(=O)O)[C@H](O)[C@@H](O)c1ccc(O)cc1; Pro(3S-OH,4S-Me) = C[C@H]1CN[C@H](C(=O)O)[C@H]1O; X1 = CCCCCOc1ccc(-c2cc(-c3ccc(C(=O)*)cc3)no2)cc1; Gln(3R-OH) = NC(=O)C[C@@H](O)[C@H](N)C(=O)O; Hyp = O=C(O)[C@@H]1C[C@@H](O)CN1

What was measured:
Candida parapsilosis = test: microbe, parasite or virus in culture; type: cell-based; conditions: CLSI guidelines; for MIC: isolated Candida parapsilosis strain (cutaneous swab and urine culture); for Susceptibility of the isolated Candida strain: isolated Candida parapsilosis strain
Procedure: (§1) Cutaneous swab and urine culture both yielded Candida parapsilosis. The fungal load in urine was 1,000,000 CFU/mL. Susceptibility tests were performed according to the Clinical and Laboratory Standards Institute (CLSI) guidelines. Blood cultures resulted negative, but the child had been on antimicrobial therapy for several days. The isolated Candida strain was susceptible to micafungin (MIC, 0.5 µg/mL), anidulafungin (MIC, 2 µg/mL), fluconazole (MIC, 0.5 µg/mL), itraconazole (MIC, 0.06 µg/mL), voriconazole (MIC, <0.008 µg/mL) and amphotericin B (MIC, 0.5 µg/mL). Among the effective antifungals, we chose micafungin because of the feasibility of plasma concentration monitoring via heel stick capillary samples [8]. After given and obtained informed consent from the parents, both in relation to the high dosage of micafungin to be administered and monitored and to the participation in clinical trials and publications, micafungin was administered intravenously at a dose of 8 mg/kg/day; it was diluted in 0.9% saline solution at a concentration of 2 mg/mL and infused intravenously through epicutaneo-cava catheter in one hour. Plasma micafungin concentrations were measured by high performance liquid chromatography (HPLC) on the third day of the starting of therapy. The lower limit of detection (LLOD) of micafungin was 0.5 mg/L, and the lower limit of quantification (LLOQ) was 1 mg/L. (Table 1).

[1] = system: invasive Candida parapsilosis infection; test: Clinical treatment of invasive Candida parapsilosis infection (case report); type: in vivo, human preterm neonate; conditions: 8 mg/kg/day; extremely preterm neonate with invasive Candida parapsilosis infection
Procedure: as §1, with “1). […]” for “1).”

[2] = system: confirmed or suspected ICIs; conditions: 8 mg/kg/day; 35 neonates with confirmed or suspected ICIs; cited from earlier work
From the text: Invasive Candida infections (ICIs) are a major cause of morbidity and mortality among very preterm infants; Candida albicans is the most frequently occurring species, although Candida parapsilosis infections are increasingly reported in preterm neonates. Despite the high minimum inhibitory concentration (MIC) necessary for Candida parapsilosis eradication, echinocandins have a prominent role when an ICI occurs in very preterm infants. These patients often carry a central vascular catheter in which Candida parapsilosis forms a biofilm, due to its adherence properties that favo ...

[3] = Clinical tolerability of micafungin (case report); type: in vivo, human preterm neonate; conditions: 8 mg/kg/day; for Side effects / tolerability: baby with previous cholestasis
Procedure: (§2) Given the severe clinical conditions of our patient, the epicutaneo-cava catheter was difficult to replace safely. The systemic therapy allowed complete infection control. […] We monitored plasma concentration of micafungin on 0.3 mL heel puncture blood samples, as previously described, in order to avoid excessive blood draws in a patient of low weight and in such severe clinical conditions.

[4] = Plasma micafungin concentration monitoring by HPLC; type: in vivo, human preterm neonate; conditions: one patient
Procedure: as §1, §2

| SMILES | MIC (Candida parapsilosis; read-out: MIC) [µg/mL] | Susceptibility of the isolated Candida strain (Candida parapsilosis) | MIC (Candida parapsilosis) [µg/mL] | other results |
| --- | --- | --- | --- | --- |
| C[C@@H]1[C@H](O)[C@@H](C)/C=C/C=C/C=C/C=C/C=C/C=C/C=C/[C@H](O[C@@H]2O[C@H](C)[C@@H](O)[C@H](N)[C@@H]2O)C[C@@H]2O[C@](O)(C[C@@H](O)C[C@@H](O)[C@H](O)CC[C@@H](O)C[C@@H](O)CC(=O)O[C@H]1C)C[C@H](O)[C@H]2C(=O)O [amphotericin B] | 0.5 (≈ 0.541 µM) | susceptible |  |  |
| CCCCCOc1ccc(-c2ccc(-c3ccc(C(=O)N[C@H]4C[C@@H](O)[C@@H](O)NC(=O)[C@@H]5[C@@H](O)[C@@H](C)CN5C(=O)[C@H]([C@@H](C)O)NC(=O)[C@H]([C@H](O)[C@@H](O)c5ccc(O)cc5)NC(=O)[C@@H]5C[C@@H](O)CN5C(=O)[C@H]([C@@H](C)O)NC4=O)cc3)cc2)cc1 [anidulafungin] ({pTerphenylCO(4''-OnC5H11)}-[Orn(4R-OH,5R-OH)]T[Hyp][hTyr(3S-OH,4S-OH)]T[Pro(3S-OH,4S-Me)]; lactam 1-C; N-terminus assumed) |  | susceptible | 2 (≈ 1.75 µM) |  |
| OC(Cn1cncn1)(Cn1cncn1)c1ccc(F)cc1F [fluconazole] | 0.5 (≈ 1.63 µM) | susceptible |  |  |
| CCC(C)n1ncn(-c2ccc(N3CCN(c4ccc(OCC5COC(Cn6cncn6)(c6ccc(Cl)cc6Cl)O5)cc4)CC3)cc2)c1=O (stereo not shown) [itraconazole] | 0.06 (≈ 0.085 µM) | susceptible |  |  |
| CCCCCOc1ccc(-c2cc(-c3ccc(C(=O)N[C@H]4C[C@@H](O)[C@@H](O)NC(=O)[C@@H]5[C@@H](O)[C@@H](C)CN5C(=O)[C@H]([C@H](O)CC(N)=O)NC(=O)[C@H]([C@H](O)[C@@H](O)c5ccc(O)c(OS(=O)(=O)O)c5)NC(=O)[C@@H]5C[C@@H](O)CN5C(=O)[C@H]([C@@H](C)O)NC4=O)cc3)no2)cc1 [micafungin] (X1-[Orn(4R-OH,5R-OH)]T[Hyp][hTyr(3S-OH,4S-OH,3'-OSO3H)][Gln(3R-OH)][Pro(3S-OH,4S-Me)]; lactam 1-C) |  | susceptible | 0.5 (≈ 0.394 µM) | Clinical efficacy [1]: effective; Response [2]: high response; Side effects / tolerability [3]: did not cause side effects; Side effects / tolerability ([3]; listed as Micafungin): well tolerated; Aspartate aminotransaminase and alanine aminotransaminase ([3]; rapidly returned within normal range after discontinuation of therapy): transient increase; Plasma Cmax/MIC ratio ([4]; 8 mg/kg/day micafungin dose): > 10; Cmax ([4]; human, in vivo, iv, 8 mg/kg/day i.v. over one hour, third day of therapy, plasma, HPLC, read-out: Plasma micafungin concentration, 1 h after infusion (C max)): 11800 ng/mL; level at -0.5 h ([4]; human, iv, 8 mg/kg/day i.v. over one hour, third day of therapy, plasma, HPLC, heel puncture blood samples, read-out: Plasma micafungin concentration, 30 min before infusion (C min)): 3730 ng/mL; level at 2 h ([4]; human, iv, 8 mg/kg/day i.v. over one hour, third day of therapy, plasma, HPLC, read-out: Plasma micafungin concentration, 2 h after infusion): 9700 ng/mL; level at 8 h ([4]; human, iv, 8 mg/kg/day i.v. over one hour, third day of therapy, plasma, HPLC, read-out: Plasma micafungin concentration, 8 h after infusion): 7900 ng/mL |
| C[C@@H](c1ncncc1F)[C@](O)(Cn1cncn1)c1ccc(F)cc1F [voriconazole] | < 0.008 | susceptible |  |  |
